The source of these data is patent US20240131044A1, “METHOD FOR TREATING CANCER” (M.T.3, Inc., priority 2022, published 2024).

The test system of one test is angiogenesis. The following applies: in combination with radiation; cited from earlier work.
For test [1], the system named is human esophageal squamous cell carcinoma. Particulars: in combination with radiation; mouse with transplanted human esophageal squamous cell carcinoma; cited from earlier work.
Test [2] deals with human colon adenocarcinoma. The following applies: in combination with radiation; mouse with transplanted human colon adenocarcinoma; cited from earlier work.
In another test the test system is V79 cells. The test can be described thus: Colony formation, survival fraction of V79 cells. Particulars: SQAP not administered. It is filed as cell-based, Chinese hamsters. The procedure: (§1) An anti-cancer agent and a pharmaceutical composition were administered to test cells and then the cells were cultured. Then, after colonies were formed, the number of colonies was counted. Here, samples in which the concentration of the anti-cancer agent to be administered was varied were prepared, and in each sample, the survival fraction of the cells compared with the case where cells were cultured without administration of the pharmaceutical composition was measured. Regarding the type of anti-cancer agent to be administered, a predetermined anti-cancer agent was selected depending on the type of administration target cells. Note that cells that were cultured without administration of the pharmaceutical composition and the anti-cancer agent were used as a control. Hereinafter, these steps will be described.
(§2) Here, CHO cells, V79 cells, and canine-derived cancer cells were prepared as the test cells. The CHO cells are ovarian cells derived from Chinese hamsters, and the V79 cells are fibroblasts derived from the lungs of Chinese hamsters. Melanoma developing cells (CML6M) and soft tissue sarcoma developing cells (STSA-1) were used as the cancer cells.
(§3) The cancer cells were prepared by being cultured using an αMEM culture medium supplemented with 10% serum and an antibiotic. The cancer cells were prepared such that, when the concentration of the cells in a cell suspension obtained by subjecting the cultured cells to PBS washing and trypsin treatment, the concentration was within a predetermined concentration range. Here, the predetermined concentration ranges were 300 cells/well, 100 to 150 cells/well, and 500 to 1000 cells/well for the CHO/V79 cells, the melanoma cells, and the soft tissue sarcoma cells, respectively.
(§4) Next, the cancer cells were cultured in culture environments to which the anti-cancer agent was added at various concentrations, and were then allowed to form colonies. The culture periods for colony formation were a week, 10 days, and 14 days for CHO and V79, melanoma, and soft tissue sarcoma, respectively. After colonies were formed, washing using a physiological saline solution, fixation using 100% ethanol, and staining using 0.1% crystal violet were performed, and then the number of colonies per well was counted under a microscope. Note that, here, the colony was defined as containing 50 or more cells. […]
A graph with the horizontal axis representing the concentration of the anti-cancer agent and the vertical axis representing the survival fraction was created by plotting the survival fraction measurement results relative to the SQAP administration amounts, and the effect of the addition of SQAP on the survival fraction was examined. Hereinafter, the results from each anti-cancer agent will be shown in a table and described. […]
V79 cells were used as the cells, and cisplatin was used as the anti-cancer agent. The cisplatin was administered at concentrations of 0 μg/mL, 0.1 μg/mL, 0.2 μg/mL, 0.3 μg/mL, 0.4 μg/mL, and 0.5 μg/mL.
V79 cells were used as the cells, and camptothecin was used as the anti-cancer agent. The amount of the camptothecin was set to 0 nM, 5 nM, 10 nM, 15 nM, and 20 nM.
V79 cells were used as the cells, and mitomycin C was used as the anti-cancer agent. The amount of MMC was set to 0 nM, 100 nM, 200 nM, 300 nM, 400 nM, and 500 nM. […]
V79 cells were used as the cells, and taxol was used as the anti-cancer agent. The amount of the taxol was set to 0 nM, 10 nM, 20 nM, and 30 nM.
V79 cells were used as the cells, and MMS was used as the anti-cancer agent. The amount of the MMS was set to 0 μM, 10 μM, 20 μM, 30 μM, and 40 μM.
(§5) In the above examples, the anti-cancer agent and the pharmaceutical composition were administered to the test cells and then the cells were cultured. […]

Another test relates to CHO cells. Kind of test: Colony formation, survival fraction of CHO cells. In kind it is cell-based, Chinese hamsters. The following applies: mitomycin C 500 nM, SQAP not administered. As to the method:
as §1, §2, §3, §4
In the above examples, the anti-cancer agent and the pharmaceutical composition were administered to the test cells and then the cells were cultured. In this example, test cells were cultured after administering pharmaceutical composition (SQAP) alone without administering the anti-cancer agent to the test cells, and then the number of colonies was counted after colonies were formed. […]

For test [3], the system named is soft tissue sarcoma developing cells (STSA-1). Kind of test: Colony formation, survival fraction of canine soft tissue sarcoma cells. In kind it is cell-based. The following applies: soft tissue sarcoma cells; doxorubicin 10 nM, SQAP not administered. As to the method:
as §1, §2, §3
(§6) Next, the cancer cells were cultured in culture environments to which the anti-cancer agent was added at various concentrations, and were then allowed to form colonies. The culture periods for colony formation were a week, 10 days, and 14 days for CHO and V79, melanoma, and soft tissue sarcoma, respectively. After colonies were formed, washing using a physiological saline solution, fixation using 100% ethanol, and staining using 0.1% crystal violet were performed, and then the number of colonies per well was counted under a microscope. Note that, here, the colony was defined as containing 50 or more cells. Moreover, mitomycin C, doxorubicin, bleomycin, camptothecin, etoposide, taxol, methyl methanesulfonate, and cisplatin were used as the anti-cancer agent.
(§7) A graph with the horizontal axis representing the concentration of the anti-cancer agent and the vertical axis representing the survival fraction was created by plotting the survival fraction measurement results relative to the SQAP administration amounts, and the effect of the addition of SQAP on the survival fraction was examined. Hereinafter, the results from each anti-cancer agent will be shown in a table and described.
Canine-derived melanoma cells and soft tissue sarcoma cells were used as the cells, and doxorubicin was used as the anti-cancer agent. The amount of the doxorubicin administered to the melanoma cell was set to 0 nM, 5 nM, 10 nM, 15 nM, 20 nM, and 25 nM. […] In Table 2, survival fractions in the case where SQAP was not administered are shown with a solid line, survival fractions in the case where SQAP was administered at a concentration of 10 μM are shown with a broken line, survival fractions in the case where SQAP was administered at a concentration of 20 μM are shown with a 1-dot chain line, and survival fractions in the case where SQAP was administered at a concentration of 30 μM are shown with a 2-dot chain line.
as §5

Test [4] concerns Melanoma developing cells (CML6M). Kind of test: Colony formation, survival fraction of canine melanoma cells. It is filed as cell-based. Particulars: melanoma cells; doxorubicin 15 nM, SQAP not administered. The procedure: as §1, §2, §3, §6, §7
Canine-derived melanoma cells and soft tissue sarcoma cells were used as the cells, and doxorubicin was used as the anti-cancer agent. […] Also, the concentration of the doxorubicin administered to the soft tissue sarcoma cells was set to 0 nM, 5 nM, 10 nM, and 15 nM. […] In Table 2, survival fractions in the case where SQAP was not administered are shown with a solid line, survival fractions in the case where SQAP was administered at a concentration of 10 μM are shown with a broken line, survival fractions in the case where SQAP was administered at a concentration of 20 μM are shown with a 1-dot chain line, and survival fractions in the case where SQAP was administered at a concentration of 30 μM are shown with a 2-dot chain line.
as §5

For the compound `CCCCCCCCCCCCCC(=O)OCCCO[C@H]1O[C@H](CS(=O)(=O)[O-])[C@@H](O)[C@H](O)[C@H]1O.[Na+]` [αSQAP C14:0], the “angiogenesis in an in-vitro test” value with angiogenesis is “inhibited”.
For the compound `CCCCCCCCCCCCCCCCCC(=O)OCCCO[C@H]1O[C@H](CS(=O)(=O)[O-])[C@@H](O)[C@H](O)[C@H]1O.[Na+]` [αSQAP C18:0], the “angiogenesis in an in-vitro test” value in the test on angiogenesis is on record as “inhibited”. Also, the “increase in a tumor volume” value in test [1] and in test [2] was “suppressed” each time.
As for `CCCCCCCCCCCCCCCCCC(=O)OCCCO[C@@H]1O[C@H](CS(=O)(=O)[O-])[C@@H](O)[C@H](O)[C@H]1O.[Na+]` [βSQAP C18:0], the “angiogenesis in an in-vitro test” value in the test with angiogenesis is reported as “inhibited”.
As for bleomycin [reference compound], in the test on V79 cells (bleomycin 15 nM), the survival fraction result was “about 40%”.
In the case of `COc1cc([C@@H]2c3cc4c(cc3[C@@H](O[C@@H]3O[C@@H]5CO[C@@H](C)O[C@H]5[C@H](O)[C@H]3O)[C@H]3COC(=O)[C@H]23)OCO4)cc(OC)c1O` [etoposide, reference compound], the survival fraction result with V79 cells (etoposide 30 nM) is “about 30%”.
Consider `CC(=O)O[C@H]1C(=O)[C@@]2(C)[C@H]([C@H](OC(=O)c3ccccc3)[C@]3(O)C[C@H](OC(=O)[C@H](O)[C@@H](NC(=O)c4ccccc4)c4ccccc4)C(C)=C1C3(C)C)[C@]1(OC(C)=O)CO[C@@H]1C[C@@H]2O` [taxol, reference compound], for which the survival fraction entry in the test on V79 cells (taxol 30 nM) is listed as “about 5%”.
`CCCCCCCCCCCCCCCCCCCCCC(=O)OCCCO[C@H]1O[C@H](CS(=O)(=O)[O-])[C@@H](O)[C@H](O)[C@H]1O.[Na+]` [αSQAP C22:0]: the “angiogenesis in an in-vitro test” value with angiogenesis was “inhibited”.
`N.N.[Cl][Pt][Cl]` [cisplatin, reference compound]: the survival fraction result in the test with V79 cells (cisplatin 0.3 μg/mL) is recorded as “about 40%”.
In the case of `CO[C@@]12[C@H](COC(N)=O)C3=C(C(=O)C(C)=C(N)C3=O)N1C[C@@H]1N[C@@H]12` [mitomycin C, reference compound], the survival fraction result in the test on CHO cells is given as “about 40%”; in the test on V79 cells (mitomycin C 500 nM), “about 50%”.
`CCCCCCCCCC(=O)OCCCO[C@H]1O[C@H](CS(=O)(=O)[O-])[C@@H](O)[C@H](O)[C@H]1O.[Na+]` [αSQAP C10:0]: the “angiogenesis in an in-vitro test” value with angiogenesis is given as “inhibited”.
On to `CC[C@@]1(O)C(=O)OCc2c1cc1n(c2=O)Cc2cc3ccccc3nc2-1` [camptothecin, reference compound], for which, in the test on V79 cells (camptothecin 20 nM), the survival fraction entry is given as “about 15%”.
Consider `COS(C)(=O)=O` [MMS, methyl methanesulfonate, reference compound], for which the survival fraction entry in the test with V79 cells (MMS 40 μM) is listed as “about 40%”.
Turning to `COc1cccc2c1C(=O)c1c(O)c3c(c(O)c1C2=O)C[C@@](O)(C(=O)CO)C[C@@H]3O[C@H]1C[C@H](N)[C@H](O)[C@H](C)O1` [doxorubicin, reference compound], the figures for the survival fraction result in test [3] and in test [4] were “about 6%” and “about 20%”, respectively.
